pEC50: −log10 of the molar value.

The target in one assay is T1, RORγ-LBD (Homo sapiens, UniProt P51449).
T1 construct: made in house; host or cells: SF9 cells (baculovirus); used as diluted lysate
T1 sequence (P51449 269-508 limits assumed): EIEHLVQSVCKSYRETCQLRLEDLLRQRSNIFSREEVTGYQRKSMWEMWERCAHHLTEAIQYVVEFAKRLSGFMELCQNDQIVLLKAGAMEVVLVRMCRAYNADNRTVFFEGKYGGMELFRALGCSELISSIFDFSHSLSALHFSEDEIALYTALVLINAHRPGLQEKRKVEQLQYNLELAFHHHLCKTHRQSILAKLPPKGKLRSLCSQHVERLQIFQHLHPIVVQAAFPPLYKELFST
Briefly: RORγ-Ligand Binding Domain (LBD) TR-FRET Assay.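 On TR-FRET Assay Max Response: 665/615 nm signal ratio set to 100 without ursolic acid or test compound.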 The assay is classed as biochemical. Conditions: for TR-FRET Assay Max Response: maximum response. The essentials:
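TR-FRET read-out using a biotin-tagged SRC1 coactivator LXXLL peptide (200 nM final), with the antagonist ursolic acid present at 2 μM final. Receptor is His-tagged LBD expressed in SF9 cells, ~3 nM final in pH 7.0 Tris/KCl/EDTA/DTT/BSA buffer; compounds in 1% DMSO final.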
A general note: TR-FRET usually uses a lanthanide donor and a delayed reading to cut background.

The target in another assay is T2, Gal4-RORγ-LBD (Homo sapiens, UniProt P51449).
T2 construct: expressed in transfected cells
T2 sequence (P51449 269-508 limits assumed): T1 sequence (P51449 269-508 limits assumed)
Briefly: Gal4-RORγ Luciferase Reporter Assay in HEK-293T Cells. It is filed as cell-based. The settings on record: HEK-293 cells; for Gal4-RORγ Assay Max Response: maximum response. The essentials: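 Max Response was taken as the upper plateau of a 4-parameter logistic fit of luciferase signal, normalized to 100 for wells without ursolic acid or compound. Transiently Gal4-RORγ-LBD/Gal4-luc transfected HEK-293 cells carrying […] ursolic acid were incubated with test compounds (0.2% DMSO) overnight at 37 °C and read with One-Glo.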
Background: A reporter such as luciferase makes a cellular process visible.

Setting [1] is: luciferase reporter, in presence of ursolic acid.

Broadly, the pEC50 is the negative decadic logarithm of the EC50, by convention in mol/L. For the compound `C/C(=C\c1ccc2c(c1)N(S(=O)(=O)c1cccc(C(F)(F)F)c1)C[C@H](CCC(=O)N1CCC[C@H]1C(=O)O)O2)c1c(F)cccc1Cl` [Example 129J, (3-((S)-6-((E)-2-(2-chloro-6-fluorophenyl)prop-1-en-1-yl)-4-((3-(trifluoromethyl)phenyl)sulfonyl)-3,4-dihydro-2H-benzo[b][1,4]oxazin-2-yl)propanoyl)-L-proline], at RORγ-LBD (RORγ-LBD TR-FRET assay), the negative-log EC50 (pEC50) was over 6.30 and the “TR-FRET Assay Max Response” value was “**** (a value greater than 200)”. Further, on Gal4-RORγ-LBD (setting [1]), the negative logarithm of the EC50 (pEC50) was 5.30 to 6.30 and the “Gal4-RORγ Assay Max Response” value was “*** (a value in the range of greater than 150 to 200)”.

Regarding `C/C(=C\c1ccc2c(c1)N(S(=O)(=O)c1cc(C(F)(F)F)cnc1OCCO)C[C@H](CCC(=O)N1CCC(C(=O)O)CC1)O2)c1c(F)cccc1Cl` [Example 129K, (S,E)-1-(3-(6-(2-(2-chloro-6-fluorophenyl)-prop-1-en-1-yl)-4-((2-(2-hydroxyethoxy)-5-(trifluoromethyl)pyridin-3-yl)sulfonyl)-3,4-dihydro-2H-benzo[b][1,4]oxazin-2-yl)propanoyl)piperidine-4-carboxylic acid], on RORγ-LBD (RORγ-LBD TR-FRET assay), the pEC50 was over 6.30 and the “TR-FRET Assay Max Response” value is reported as “*** (a value in the range of greater than 150 to 200)”. At Gal4-RORγ-LBD (setting [1]), the negative-log EC50 (pEC50) is 5.30 to 6.30 and the “Gal4-RORγ Assay Max Response” value is on record as “** (a value in the range of greater than 90 to 150)”.

Turning to `CCOc1ncc(C(F)(F)F)cc1S(=O)(=O)N1C[C@H](CCC(=O)N2CCC(C(=O)O)CC2)Oc2ccc(/C=C(\C)c3c(F)cccc3Cl)cc21` [Example 129L, (S,E)-1-(3-(6-(2-(2-chloro-6-fluorophenyl)-prop-1-en-1-yl)-4-((2-ethoxy-5-(trifluoro-methyl)pyridin-3-yl)sulfonyl)-3,4-dihydro-2H-benzo[b][1,4]oxazin-2-yl)propanoyl)-piperidine-4-carboxylic acid], on RORγ-LBD (RORγ-LBD TR-FRET assay), the pEC50 is over 6.30 and the “TR-FRET Assay Max Response” value is on record as “*** (a value in the range of greater than 150 to 200)”. At Gal4-RORγ-LBD (setting [1]), the pEC50 was over 6.30 and the “Gal4-RORγ Assay Max Response” value is recorded as “* (a value in the range of 30 to 90)”.

Regarding `C/C(=C\c1ccc2c(c1)N(S(=O)(=O)c1cc(C(F)(F)F)ccc1OCCO)C[C@H](CCC(=O)N1CCC(C(=O)O)CC1)O2)c1c(F)cccc1Cl` [Example 129M, (S,E)-1-(3-(6-(2-(2-chloro-6-fluorophenyl)-prop-1-en-1-yl)-4-((2-(2-hydroxyethoxy)-5-(trifluoromethyl)phenyl)sulfonyl)-3,4-dihydro-2H-benzo[b][1,4]oxazin-2-yl)propanoyl)piperidine-4-carboxylic acid], at RORγ-LBD (RORγ-LBD TR-FRET assay), the pEC50 was over 6.30 and the “TR-FRET Assay Max Response” value is listed as “*** (a value in the range of greater than 150 to 200)”. On Gal4-RORγ-LBD (setting [1]), the pEC50 is 5.30 to 6.30 and the “Gal4-RORγ Assay Max Response” value is “** (a value in the range of greater than 90 to 150)”.

Turning to `C/C(=C\c1ccc2c(c1)N(S(=O)(=O)c1cccc(C(F)(F)F)c1)C[C@H](CCC(=O)N1CCC(C)(C(=O)O)CC1)O2)c1c(F)cccc1Cl` [Example 129N, (S,E)-1-(3-(6-(2-(2-chloro-6-fluorophenyl)-prop-1-en-1-yl)-4-((3-(trifluoromethyl)phenyl)sulfonyl)-3,4-dihydro-2H-benzo[b][1,4]oxazin-2-yl)propanoyl)-4-methylpiperidine-4-carboxylic acid], at RORγ-LBD (RORγ-LBD TR-FRET assay), the pEC50 was over 6.30 and the “TR-FRET Assay Max Response” value was “*** (a value in the range of greater than 150 to 200)”. On Gal4-RORγ-LBD (setting [1]), the pEC50 is over 6.30 and the “Gal4-RORγ Assay Max Response” value is “** (a value in the range of greater than 90 to 150)”.

On to `O=C(O)C1CCN(C(=O)CC[C@H]2CN(S(=O)(=O)c3cccc(C(F)(F)F)c3)c3cc(/C=C/c4c(F)cccc4Cl)ccc3O2)CC1` [Example 129O, (S,E)-1-(3-(6-(2-chloro-6-fluorostyryl)-4-((3-(trifluoromethyl)phenyl)sulfonyl)-3,4-dihydro-2H-benzo[b][1,4]oxazin-2-yl)propanoyl)piperidine-4-carboxylic acid], for which, on RORγ-LBD (RORγ-LBD TR-FRET assay), the pEC50 was over 6.30 and the “TR-FRET Assay Max Response” value is on record as “*** (a value in the range of greater than 150 to 200)”. For the same compound, on Gal4-RORγ-LBD (setting [1]), the negative logarithm of the EC50 (pEC50) was over 6.30 and the “Gal4-RORγ Assay Max Response” value is “** (a value in the range of greater than 90 to 150)”.

With `C/C(=C\c1ccc2c(c1)N(S(=O)(=O)c1cccc(C(F)(F)F)c1)C[C@H](CCC(=O)N(C)CCC(=O)O)O2)c1c(F)cccc1Cl` [Example 129Q, (S,E)-3-(3-(6-(2-(2-chloro-6-fluorophenyl)prop-1-en-1-yl)-4-((3-(trifluoromethyl)-phenyl)sulfonyl)-3,4-dihydro-2H-benzo[b][1,4]-oxazin-2-yl)-N-methyl-propanamido)-propanoic acid], the pEC50 was over 6.30 at RORγ-LBD (with 2 μM ursolic acid (RORγ antagonist), highest test concentration 10 μM) and over 6.30 at Gal4-RORγ-LBD (ursolic acid present, luciferase readout).

Consider `O=S(=O)(c1cccc(C(F)(F)F)c1)N1C[C@H](CO)Oc2ccc(Oc3ccccc3)cc21` [Example 130, (R)-(6-Phenoxy-4-((3-(trifluoromethyl)phenyl)sulfonyl)-3,4-dihydro-2H-benzo[b][1,4]oxazin-2-yl)methanol], for which, at RORγ-LBD (RORγ-LBD TR-FRET assay), the pEC50 was over 6.30 and the “TR-FRET Assay Max Response” value is recorded as “*** (a value in the range of greater than 150 to 200)”. For the same compound, on Gal4-RORγ-LBD (setting [1]), the negative-log EC50 (pEC50) was 5.30 to 6.30 and the “Gal4-RORγ Assay Max Response” value was “** (a value in the range of greater than 90 to 150)”.

For the compound `O=S(=O)(c1cccc(C(F)(F)F)c1)N1C[C@H](CO)Oc2ccc(Oc3ccccc3Cl)cc21` [Example 131, (R)-(6-(2-Chlorophenoxy)-4-((3-(trifluoromethyl)phenyl)sulfonyl)-3,4-dihydro-2H-benzo[b][1,4]oxazin-2-yl)methanol], at RORγ-LBD (RORγ-LBD TR-FRET assay), the negative-log EC50 (pEC50) is over 6.30 and the “TR-FRET Assay Max Response” value is listed as “*** (a value in the range of greater than 150 to 200)”. Further, at Gal4-RORγ-LBD (setting [1]), the pEC50 is over 6.30 and the “Gal4-RORγ Assay Max Response” value is recorded as “** (a value in the range of greater than 90 to 150)”.

Regarding `COc1cc(S(=O)(=O)N2C[C@H](CNC(=O)CCC(=O)O)Oc3ccc(/C=C(\C)c4c(F)cccc4Cl)cc32)ccc1F` [Example 132, (S,E)-4-(((6-(2-(2-Chloro-6-fluorophenyl)prop-1-en-1-yl)-4-((4-fluoro-3-methoxyphenyl)sulfonyl)-3,4-dihydro-2H-benzo[b][1,4]oxazin-2-yl)methyl)amino)-4-oxobutanoic acid], on RORγ-LBD (RORγ-LBD TR-FRET assay), the negative logarithm of the EC50 (pEC50) was over 6.30 and the “TR-FRET Assay Max Response” value is “**** (a value greater than 200)”. Further, on Gal4-RORγ-LBD (setting [1]), the negative logarithm of the EC50 (pEC50) was 5.30 to 6.30 and the “Gal4-RORγ Assay Max Response” value is “*** (a value in the range of greater than 150 to 200)”.

Regarding `COC(=O)c1ccc(C(=O)NC[C@H]2CN(S(=O)(=O)c3ccc(F)c(OC)c3)c3cc(/C=C(\C)c4c(F)cccc4Cl)ccc3O2)cc1` [Example 133, Methyl (S,E)-4-(((6-(2-(2-chloro-6-fluorophenyl)prop-1-en-1-yl)-4-((4-fluoro-3-methoxyphenyl)sulfonyl)-3,4-dihydro-2H-benzo[b][1,4]oxazin-2-yl)methyl)carbamoyl)benzoate], on RORγ-LBD (RORγ-LBD TR-FRET assay), the pEC50 is over 6.30 and the “TR-FRET Assay Max Response” value is on record as “**** (a value greater than 200)”. At Gal4-RORγ-LBD (setting [1]), the pEC50 is over 6.30 and the “Gal4-RORγ Assay Max Response” value is listed as “* (a value in the range of 30 to 90)”.

Consider `COc1cc(S(=O)(=O)N2C[C@H](CNC(=O)c3ccc(C(=O)O)cc3)Oc3ccc(/C=C(\C)c4c(F)cccc4Cl)cc32)ccc1F` [Example 134, (S,E)-4-(((6-(2-(2-Chloro-6-fluorophenyl)prop-1-en-1-yl)-4-((4-fluoro-3-methoxyphenyl)sulfonyl)-3,4-dihydro-2H-benzo[b][1,4]oxazin-2-yl)methyl)carbamoyl)benzoic acid], for which, on RORγ-LBD (RORγ-LBD TR-FRET assay), the negative logarithm of the EC50 (pEC50) was over 6.30 and the “TR-FRET Assay Max Response” value is reported as “**** (a value greater than 200)”. Moreover, on Gal4-RORγ-LBD (setting [1]), the pEC50 is over 6.30 and the “Gal4-RORγ Assay Max Response” value was “*** (a value in the range of greater than 150 to 200)”.

Take `COc1cc(S(=O)(=O)N2C[C@H](CNC(=O)c3cccc(C(=O)O)c3)Oc3ccc(/C=C(\C)c4c(F)cccc4Cl)cc32)ccc1F` [Example 135A, (S,E)-3-(((6-(2-(2-chloro-6-fluorophenyl)prop-1-en-1-yl)-4-((4-fluoro-3-methoxyphenyl)sulfonyl)-3,4-dihydro-2H-benzo[b][1,4]oxazin-2-yl)methyl)carbamoyl)benzoic acid]: at RORγ-LBD (RORγ-LBD TR-FRET assay), the pEC50 is over 6.30 and the “TR-FRET Assay Max Response” value is “*** (a value in the range of greater than 150 to 200)”. For the same compound, at Gal4-RORγ-LBD (setting [1]), the negative logarithm of the EC50 (pEC50) was 5.30 to 6.30 and the “Gal4-RORγ Assay Max Response” value is given as “* (a value in the range of 30 to 90)”.

Take `COc1cc(S(=O)(=O)N2C[C@H](CNC(=O)C(=O)O)Oc3ccc(/C=C(\C)c4c(F)cccc4Cl)cc32)ccc1F` [Example 135B, (S,E)-2-(((6-(2-(2-chloro-6-fluorophenyl)prop-1-en-1-yl)-4-((4-fluoro-3-methoxyphenyl)sulfonyl)-3,4-dihydro-2H-benzo[b][1,4]oxazin-2-yl)methyl)amino)-2-oxoacetic acid]: at RORγ-LBD (RORγ-LBD TR-FRET assay), the pEC50 is over 6.30 and the “TR-FRET Assay Max Response” value is on record as “**** (a value greater than 200)”. Besides, on Gal4-RORγ-LBD (setting [1]), the pEC50 was under 5.00.
